Reference: ChEMBL document CHEMBL4043072, “Catechin-Bound Ceanothane-Type Triterpenoid Derivatives from the Roots of Zizyphus jujuba” (J Nat Prod, 2017)

Test: Inhibition of cell proliferation of activated rat HSC-T6 cells incubated for 24 hrs by MTT assay
Assay type: functional, cell-based
Settings: HSC-T6, 24 h

Compound	IC50 [µM]
C=C(C)[C@@H]1CC[C@]2(C(=O)O)CC[C@]3(C)[C@H](CC[C@@H]4[C@@]5(C)[C@H]6C(=O)c7c(cc(O)c8c7O[C@@H](c7ccc(O)c(O)c7)[C@@H](O)C8)O[C@@H]6C(C)(C)[C@@H]5CC[C@]43C)[C@@H]12	43.5
O=C(O[C@@H]1Cc2c(O)cc(O)cc2O[C@@H]1c1cc(O)c(O)c(O)c1)c1cc(O)c(O)c(O)c1 [EPIGALOCATECHIN GALLATE]	31.6
